# Measured values published in patent US20220317132A1, “USE OF ENDOTHELIN RECEPTOR INHIBITOR FOR INHIBITING EXOSOME SECRETION OR INHIBITING PD-L1 EXPRESSION” (KYUNGPOOK NATIONAL UNIVERSITY INDUSTRY-ACADEMIC COOPERATION …, priority 2019, published 2022).
# Tested on: MDA-MB231 cells
# Assay: Cytotoxic effect (MTT analysis)
# Conditions: 24 hours, sulfisoxazole 100 μM, ambrisentan 1, 10, 100 μM, macitentan 100, 1000 nM, bosentan 10, 50 μM, FIG. 1
# Procedure: MCF10A cells were cultured in Mammary epithelial cell growth medium (MEGM, Lonza) added with 5% fetal bovine serum, 1% antibiotics, 52 μg/ml bovine pituitary extract, 0.5 μg/ml hydrocortisone, 10 ng/ml EGF, and 5 μg/ml insulin. MDA-MB231 and MCF7 cells were cultured in Dulbecco's modified Eagle's medium (DMEM, Hyclone) added with 10% fetal bovine serum and 1% antibiotics.
# MDA-MB231 cells were seeded at 1×10^5/well in a 24-well plate, and then cultured for 24 hours to allow time for cell stabilization. After culturing for 24 hours, the cells were treated with 100 μM of sulfisoxazole, 1, 10, and 100 μM of ambrisentan, 100 and 1000 nM of macitentan, and 10 and 50 μM of bosentan and cultured for 24 hours. Then, after treatment with MTT tetrazolium reagent, the cells were cultured for 4 hours. After 4 hours, reduced MTT formazan (3-(4,5-dimethylthiazol-2-yl)-2,5 diphenyl-tetrazolium bromide) was measured at 595 nm absorbance to confirm cell proliferation effects.
row,SMILES,"cytotoxicity (MTT, absorbance 595 nm)"
1,Cc1noc(NS(=O)(=O)c2ccc(N)cc2)c1C [sulfisoxazole],no cytotoxicity
2,COc1ccccc1Oc1c(NS(=O)(=O)c2ccc(C(C)(C)C)cc2)nc(-c2ncccn2)nc1OCCO [bosentan],no cytotoxicity
